Assay results: patent publication US12458622B2, “Methods of treatment of coronavirus-induced inflammation conditions” (priority 2020, dated 2025)

Assays:
[1] = tested on: H5N1 virus; settings: after H5N1 virus infection; cited from earlier work
[2] = tested on: HMC3 human microglia cells; experiment: MSD U-PLEX cytokine secretion induced by TNF-α; type: cell-based; design: increase in IL-1β secretion compared to untreated HMC3 cells / increase in IL-6 secretion compared to untreated HMC3 cells / increase in IL-8 secretion compared to untreated HMC3 cells / IFN-γ secretion: dose or concentration left out as unconfirmed; settings: for inhibition at 3 µM: Homo sapiens, HMC3
Method: (§1) Human microglial cell line HMC3 (CRL-3304) was purchased from ATCC (American Type Culture Collection). HMC3 cell line was cultured in DMEM medium with 10% FBS, 1% L-glutamine, and 1% penicillin/streptomycin. Cells were maintained in 37° C. incubator at 5% CO2.
(§2) HMC3 cells were resuspended, counted using the LUNA-II Automated Cell Counter, seeded in the 6-well plate (400 K cells/2 mL medium/well), and incubated overnight to allow cells to attach. The media and detached cells were removed next day. The cell layer was washed three times in PBS and once in serum- and phenolred-free DMEM (SPFM). […] The conditioned medium was collected and centrifuged at 1,000×RCF (g) for 5 min to pellet detached cells and large debris, which was subsequently passed through a 0.22 μm filter with PVDF membrane to remove smaller debris. Samples of the supernatant medium were put in a CoolRack (#07210041, Fisher Scientific) on dry ice for Snap-freezing and kept at −80° C. until use.
(§3) Meso-scale U-PLEX plates that detect a cytokine panel including IL-1β, IL-2, IL-4, IL-6, IL-8, IL-10, IFN-γ, TNF-α, and a chemokine panel including IP-10/CXCL10, MCP-1/CCL2, MIP-1α/CCL3, MIP-1P/CCL4, Eotaxin/CCL11, were used as per manufacture's protocol. 25 μL of the conditioned medium was used in each well of the MSD plates to detect the analytes. The plates were then analyzed on an MSD QuickPlex SQ120 instrument.
(§4) All the data were presented as mean±standard error from at least three times, each done in triplicate. The statistical significance between two groups was determined by Student's t test, whereas the comparisons of multiple groups were carried out by one-way ANOVA, followed by Bonferroni's post-test using GraphPad Prism 7 (GraphPad Software, Inc.). A probability value of * p<0.05 was considered to be significant.

[3] = tested on: HMC3 human microglia cells; experiment: MSD U-PLEX chemokine secretion induced by TNF-α; type: cell-based; settings: 0.3 μg/mL TNF-α, 24 hours; for inhibition at 3 µM: Homo sapiens, HMC3
Method: as §1, §2, §3, §4

[4] = tested on: HMC3 human microglia cells; experiment: Cell viability assay by AO/PI stain; type: cell-based; settings: for microglia death: 300 ng/mL, 24 hr
Method: as §1
(§5) HMC3 cells were resuspended, counted using the LUNA-II Automated Cell Counter, seeded in the 6-well plate (300 K cells/2 mL medium/well), and incubated overnight to allow cells to attach. Cells were treated with TNF-α or IFN-γ at five different concentrations (0, 10, 30, 100, 300 ng/mL) for 24 hr to induce cell activation. The supernatant medium was completely aspirated and 1 mL of fresh DMEM was added to wash the cell layer to remove detached cells and debris. The attached cells were resuspended and washed with PBS. Cells were washed with FACS buffer (2% FBS in PBS) prior to incubation with Zombie Violet Fixable Viability Dye (#423114, Biolegend, 1:500 dilution) and Human Fe Receptor Blocking Solution (#422302, Biolegend, 1:20) diluted in FACS buffer at RT for 10 min in the dark. Cells were then washed with FACS buffer and incubated at RT for 20 min with the following cell-surface antibodies: FITC anti-MHC II (#361706, Biolegend), PerCP/Cy5.5 anti-CD11b (#301328, Biolegend), BV605 anti-CD40 (#334336, Biolegend), PE anti-CD86 (#374206, Biolegend), PE/Cy7 anti-CD163 (#326514, Biolegend), APC anti-CD206 (#321110, Biolegend), and PerCP/Cy5.5 anti-CD14 (#367110, Biolegend). All of the cell-surface antibodies were diluted 1:20 in FACS buffer. Cells were permeabilized using the Transcription Factor Fixation/Permeabilization Buffer Set (#424401, Biolegend). Then cells were incubated with the following intracellular antibodies: APC/Cy7 anti-CD68 (#333822, Biolegend), purified anti-IBA1 (#PA5-27436, Invitrogen), Goat anti-Rabbit-Alexa Fluor 647 (#A21245, Invitrogen), purified anti-GFAP (#644702, Biolegend), and Goat anti-Mouse-Alexa Fluor 488 (#11029, Invitrogen). All of the intracellular antibodies were diluted 1:100 in the Permeabilization buffer (lx). Cells were washed with Permeabilization buffer and fixed in Fixation Buffer (#420801, Biolegend). Flow cytometry was performed using the Attune NxT Acoustic Focusing Cytometer (Thermo Fisher Scientific). Analysis of flow cytometry data was performed via FCS Express 7 (DeNovo Software).
Cell viability was assessed with a LUNA-FL Automated fluorescence cell counter. Viable nucleated cells show green fluorescence and dying nucleated cells show red fluorescence. 18 µL of sample was mixed with 2 μL Acridine Orange/Propidium Iodide (AO/PI) Stain.
as §4

[5] = tested on: HMC3 human microglia cells; experiment: Flow cytometry of microglia activation biomarkers; type: cell-based; settings: 300 ng/mL, 24 hr
Method: as §1
as §5, with “Cells were washed with Permeabilization buffer and fixed in Fixation Buffer (#420801, Biolegend). Flow cytometry was performed using the Attune NxT Acoustic Focusing Cytometer (Thermo Fisher Scientific). Analysis of flow cytometry data was performed via FCS Express 7 (DeNovo Software).” left out

CN1CCC(=C2c3ccccc3CC(=O)c3sccc32)CC1 [ketotifen]
lung injury [1]: improved

O=C(O)c1cc(=O)c2c(OCC(F)COc3cccc4oc(C(=O)O)cc(=O)c34)cccc2o1 [F-cromolyn]
IFN-γ concentration ([2]; 0.3 μM, TNF-α induced, 24 hr): decreased | IL-1β concentration ([2]; 0.3 μM, TNF-α induced, 24 hr): decreased | IL-6 concentration ([2]; 0.3 μM, TNF-α induced, 24 hr): decreased | IL-8 concentration ([2]; 0.3 μM, TNF-α induced, 24 hr): decreased | inhibition at 3 µM ([2]; TNF-α induced, 24 hr, read-out: inhibition of IFN-γ): > 50% | inhibition at 3 µM ([2]; TNF-α induced, 24 hr, read-out: inhibition of IL-1β): > 50% | inhibition at 3 µM ([2]; TNF-α induced, 24 hr, read-out: inhibition of IL-6): 39.8% | inhibition at 3 µM ([2]; TNF-α induced, 24 hr, read-out: inhibition of IL-8): 27.9% | extracellular IP-10 (CXCL10) ([3]; 0.3 μM): can inhibit | extracellular MCP-1 (CCL2) ([3]; 0.3 μM): can inhibit | extracellular MIP-1α (CCL3) ([3]; 0.3 μM): can inhibit | extracellular MIP-1β (CCL4) ([3]; 0.3 μM): can inhibit | inhibition at 3 µM ([3]; read-out: inhibition of IP-10 (CXCL10)): > 40% | inhibition at 3 µM ([3]; read-out: inhibition of MCP-1 (CCL2)): > 40% | inhibition at 3 µM ([3]; read-out: inhibition of MIP-1α (CCL3)): 36% | inhibition at 3 µM ([3]; read-out: inhibition of MIP-1β (CCL4)): > 40% | TNF-α induced cell death ([4]; 0.3 μM, TNF-α 0.3 μg/mL): significantly reduced cell death

TNF-α
IFN-γ secretion ([2]; 24 hours): caused the previously quiescent cells to secrete IFN-γ | increase in IL-1β secretion compared to untreated HMC3 cells ([2]; 24 hours): > 177 fold | increase in IL-6 secretion compared to untreated HMC3 cells ([2]; 24 hours): > 177 fold | increase in IL-8 secretion compared to untreated HMC3 cells ([2]; 24 hours): > 177 fold | expression of inflammatory microglia biomarkers [5]: increases the expression | microglia death [4]: 15.6% | cell death, share of the total population ([4]; TNF-α 0.3 μg/mL): approximately 20%

IFN-γ: recombinant human IFN-γ, used to activate HMC3 microglia
expression of anti-inflammatory microglia biomarkers (CD163 and CD206) [5]: no alteration | expression of inflammatory microglia biomarkers [5]: increased protein expression | microglia death [4]: 19.7%
